Test [1] deals with CCRF-CEM. Put plainly: Growth inhibition of human CCRF-CEM cells at 10 uM relative to control. The format is functional.
Test [2] relates to MOLT-4. Put plainly: Growth inhibition of human MOLT-4 cells at 10 uM relative to control. It is filed as functional.
The test system of test [3] is A549. Put plainly: Growth inhibition of human A549 cells at 10 uM relative to control. It is filed as functional.
Test [4] deals with SF-539. Put plainly: Growth inhibition of human SF-539 cells at 10 uM relative to control. The format is functional.
For test [5], the system named is Malme-3M. Put plainly: Growth inhibition of human Malme-3M cells at 10 uM relative to control. The format is functional.
Test [6] has as its system SK-MEL-28. Briefly: Growth inhibition of human SK-MEL-28 cells at 10 uM relative to control. The format is functional.
Test [7] concerns UACC-257. Briefly: Growth inhibition of human UACC-257 cells at 10 uM relative to control. The format is functional.
Test [8] concerns TK-10. Put plainly: Growth inhibition of human TK-10 cells at 10 uM relative to control. It is filed as functional.
In test [9] the test system is MDA-MB-231. Put plainly: Growth inhibition of human MDA-MB-231 cells at 10 uM relative to control. It is filed as functional.
Test [10] can be described thus: Growth inhibition of human Non-small cell lung cancer cells. It is filed as functional. To be noted: Non-small cell lung cancer cell line.
Test [11] is described as follows: Growth inhibition of human colon cancer cells. The format is functional. The settings on record: Colon cancer cell line.
A short description of test [12]: Growth inhibition of human ovarian cancer cells. The format is functional. To be noted: Ovarian cancer cell line.
The target of test [13] is DNA. Put plainly: Displacement of methyl green from DNA (unknown origin) assessed as DNA intercalation after 24 hrs by colorimetric assay. The format is nucleic-acid assay.
Where [14] appears, read: read-out: LC50 (the source's name).

In brackets after ≈: the same amount, converted by molar mass. Activity calls are given as the source filed them. No cut-off for these calls is given here.

As to `COc1cc(/C=C/C2=CC(c3cc(OC)c(OC)c(OC)c3)N3C=C(C)SC3=N2)cc(OC)c1OC` (centres undefined), the “growth inhibition (GI)” value in [1], in [2], in test [3], in test [4], in test [5] and in [6] was “Active” each time. Also, the “growth inhibition (GI)” value in test [7], in [8] and in [9] was “Active” each time. For the same molecule, the figures for the GI50 in test [10], in [11] and in test [12] were 1.94 µM, 0.92 µM and 1.75 µM, respectively. Also, the TGI in test [10] worked out at 4.81 µM; in test [11], 3.62 µM; in test [12], 33.9 µM. For the same molecule, the CC50 in test [10] (setting [14]) was 62.9 µM; in [11] (setting [14]), 36 µM; in [12] (setting [14]) it was 76.5 µM. For the same molecule, the half-maximal inhibitory concentration (IC50) in [13] came to 36.13 µg/mL (≈ 70.8 µM).

The values are drawn from ChEMBL document CHEMBL4665869, “New thiazolopyrimidine as anticancer agents: Synthesis, biological evaluation, DNA binding, molecular modeling and ADMET study” (Bioorg Med Chem Lett, 2020).
